Assay results reported in patent publication US20220119446A1, “BIOMARKERS AND TREATMENT OF NEURONAL INJURY AND NEURODEGENERATION” (Board of Supervisons of Louisiana State University and …, priority 2018, published 2022).
Entries after “also recorded” stand apart in the source; their conditions may differ. * marks the point of attachment. Boc = CC(C)(C)OC(=O)*

Columns and labels:
[1] = system: Wnt5a promoter A; assay: ChIP assay of cRel binding to Wnt5a promoter A with real-time PCR; type: cell-based, human; conditions: for cRel bound to genomic DNA, amplicon 3: RPE cells undergoing UOS, NPD1 added
Source text: Based on the regions found to bind NF-κB members (Table 4), we designed four sets of primers that bound in the proximity or within the regions of interest to perform SYBR green-based real-time PCR detection (FIG. 2, D-F and Table 3). FIGS. 2, D and F and Table 5, also show regions of high probability for methylation, a mechanism for blocking Wnt5a transcription (Vaidya et al. 2016). Micrococcal […] digested genomic DNA fragments from UOS or UOS-plus-NPD1-treated RPE cells, +/−rWnt5a, were pulled down by an antibody against cRel and used to test the four sets of primers. […] Methylation of Region 1 may occur since it was predicted by the Methprimer software (Table 5). […] The results obtained for amplicon 3, indicate competition between the Wnt5a-activated p65 and NPD1-activated cRel (FIG. 2E).
The chromatin immunoprecipitation assay can be performed using SimpleChIP® Plus Enzymatic Chromatin IP Kit (Cell Signaling Technology, Boston, Mass.) following the manufacturer's recommendations including ChIP validated cRel antibody. Positive control Histone H3 antibody and normal serum can be provided by a kit, as well as control primers for human RPL30 Exon 3. Primers A1 to 4 can be designed using Primer-Blast (NCBI, Bethesda, Md.)((Ye et al. 2012) and are depicted in Table 5. The immunoprecipitated samples real-time PCR values can be standardized using 10% of the input chromatin preparation using primers A1, A2, and A3 pooled values and RPL30 Exon 3 values.
The chromatin immunoprecipitation assay was performed using SimpleChIP® Plus Enzymatic Chromatin IP Kit (Cell Signaling Technology, Boston, Mass., USA) following the manufacturer's recommendations including ChIP validated cREL antibody. Positive control Histone H3 antibody and normal serum was provided by the kit, as well as control primers for human RPL30 Exon 3. Primers A1 to 4 were designed using Primer-Blast at NCBI platform (Ye et al., 2012) and are depicted in Table S5. The immunoprecipitated samples real-time PCR values were standardized using 10% of the input chromatin preparation using primers A1, A2, and A3 pooled values and RPL30 Exon 3 values.

[2] = system: Wnt5a; assay: Transient MCAo: Wnt5a protein in plasma; type: in vivo; conditions: rat MCAo, days 1, 3 and 7 post-surgery
Experimental: In various exemplary embodiments, docosahexaenoic acid (DHA; 5 mg/kg, Cayman, Ann Arbor, Mich., USA), Box5 (1 mg/kg, Millipore-Sigma, Burlington, Mass.) or vehicle (0.9% saline) is administered intravenously into the femoral vein at a constant rate over 3 min using an infusion pump at 3 h after onset of MCAo. In embodiments, for western-blot study, rats are sacrificed on days 1, 3, or 7; for real-time PCR study, rats are sacrificed on days 1, 2, or 3.
A, Timeline of MCAo. DHA, Box5 or saline were administered at 1 h after 2 h of MCAo and rats were sacrificed on days 1, 2, 3 or 7. B, Effect of DHA on neurological recovery. Total score (normal score=0, maximal deficit=12), tactile placing (dorsal, lateral, proprioceptive reactions; normal score=0, maximal deficit=2) after MCAo. DHA or saline was administered at 1 h after 2 h of MCAo and rats sampled on days 1, 2, 3 or 7. […] C, Total neurological score at days 1, 3 and 7; D, MRI quantification at day 7 of the lesion volume depicting total, core and penumbra and; E, representative coronal sections showing T2 weighted image (T2WI), the defined core and penumbra region (red and blue, respectively) in the second column; and a 3D reconstruction of the lesion. […] J, Quantification of Wnt5a and NF-κB linked gene expression in MCAo. […] The mRNA were measured using SYBR green RT-PCR. […]

| Compound | cRel bound to genomic DNA, amplicon 2 (Region 3 and 4) ([1]; RPE cells under UOS, NPD1 100 nM) | cRel binding, amplicon 4 ([1]; RPE cells undergoing UOS in the presence of rWnt5a) | cRel bound to genomic DNA, amplicon 3 ([1]; Wnt5a present) | cRel bound to genomic DNA, amplicon 3 ([1]; absence of Wnt5a) | cRel binding to genomic DNA, amplicon A1 ([1]; RPE cells, UOS or UOS plus NPD1, +/−rWnt5a) | plasma (blood) Wnt5a protein [2] |
| --- | --- | --- | --- | --- | --- | --- |
| CC/C=C\C[C@H](O)\C=C/C=C/C=C/[C@H](O)C/C=C\C/C=C\CCC(=O)O [NPD1, 10R,17S-dihydroxy-docosa-4Z,7Z,11E,13E,15Z,19Z-hexaenoic acid] | twice the amount of cRel bound | restored the cRel binding to control levels | 10 fold | more than 20 fold | no differences between treatments | – |
| t-Boc-NH-Met-Asp-Gly-Cys-Glu-Leu-CO2H (Boc-MDGCEL-OH) [Box5] | – | – | – | – | – | failed to reduce the plasma Wnt5a content; also recorded: did not affect the levels of Wnt5a; also recorded: did not affect Wnt5a abundance |
